The subject of one test is plasma LDL-C. Briefly: Effects on LDL-C level in high fat diet hamster. It is filed as in vivo, Syrian hamsters. The settings on record: high fat diet + 2% test substance, 21st day of the administration (FIG. 3). The protocol:
(§1) 6 week old male Syrian hamsters (Japan SLC, Inc.) were bred at a temperature of 23±3° C. and a light-dark cycle of 12 hours on a free feeding of standard diet for 11 days, and the hamsters were divided into 4 groups, namely, standard forage group (Standard) (n=4), high-fat diet group (n=8), EPA group (HF+EPA-E) (n=8), and DHA group (HF+DHA-E) (n=7). The standard diet used was CLEA Rodent Diet CE-2 (4.8% fat) manufactured by CLEA Japan, Inc. and the high fat diet (HF) used was Hypercholesterolemic Hamster Diet (9% sugar and fat 21% fat) manufactured by Wilson. The action of the EPA and the DHA on the LDL-C level was confirmed by using the hamsters fed on a high fat diet. Along with the experiment of the action of suppressing the body weight gain in Experimental Example 1, blood was collected at day 7, 14, and 21 after the starting of the administration, and plasma was separated by centrifugation. Plasma LDL-C concentration was measured by using a commercially available test reagent (Wako L-Type LDL-C manufactured by Wako Pure Chemical Industries).

A further test relates to CETP. Briefly: Effects on CETP activity value in high fat diet hamster. The settings on record: high fat diet + 2% test substance, 21st day of the administration (FIG. 4). It is filed as in vivo, Syrian hamsters. As for the experimental part: as §1, with “CETP activity value” for “LDL-C level”, “CETP activity value” for “LDL-C concentration”, “a” for “a commercially available”, “(CETP activity assay kit” for “(Wako L-Type LDL-C”, “Bio Vision).” for “Wako Pure Chemical Industries).”

Test [1] has as its system obesity model hamster fed on a high fat diet. Nature of the test: Effect of suppressing the body weight gain in the obesity model hamster fed on a high fat diet. The class given is in vivo, Syrian hamsters. The settings on record: for body weight gain rate on the 21st day: mixed diet of high fat diet + 2% test substance, compared with high-fat diet group (FIG. 1). The protocol: 6 week old male Syrian hamsters (Japan SLC, Inc.) were bred at a temperature of 23±3° C. and a light-dark cycle of 12 hours on a free feeding of standard diet for 11 days, and the hamsters were divided into 4 groups, namely, standard forage group (Standard) (n=4), high-fat diet group (n=8), EPA group (HF+EPA-E) (n=8), and DHA group (HF+DHA-E) (n=7). The standard diet used was CLEA Rodent Diet CE-2 (4.8% fat) manufactured by CLEA Japan, Inc. and the high fat diet (HF) used was Hypercholesterolemic Hamster Diet (9% sugar and fat 21% fat) manufactured by Wilson. The effects of the EPA and DHA on the body weight gain were confirmed by using hamsters fed on a high fat diet (HF). During the feeding on the high fat diet, a mixed diet of high fat diet+2% EPA-E (comprising 98.24% EPA-E manufactured by Nippon Suisan Kaisha, Ltd.) was given to the EPA group, and a mixed diet of high fat diet+2% DHA-E (comprising 97.4% DHA-E manufactured by Equateq Ltd.) was given to the DHA group (with the diet changed once a day in the morning). The control group was given a high fat diet or a standard diet (comprising 4.8% fat) (with the diet changed once a day in the morning). The body weight was measured from the day of the start of the administration. The body weight gain rate on the 21st day was higher in the group fed on the high-fat diet group compared to the standard forage group, and the group fed on the high-fat diet was in the condition of obesity. […] This confirms that the action of suppressing the body weight gain (or reducing the body weight) of the EPA-E is realized by the action of suppressing (or reducing) the amount of fat, namely, the anti-obesity action.

Test [2] concerns model mouse with obesity associated with enhanced hepatic lipogenesis or fatty liver. The settings on record: model mouse continuously fed on a high-fat and high-sugar diet; cited from earlier work.
Test [3] has as its system model mouse with obesity not associated with the enhancement of hepatic lipogenesis or fatty liver. The settings on record: model mouse continuously fed on a high-fat diet; cited from earlier work.

In the case of `CC/C=C\C/C=C\C/C=C\C/C=C\C/C=C\C/C=C\CCC(=O)OCC` [DHA-E, ethyl docosahexaenoate], in the test on plasma LDL-C, the “plasma LDL-C level” value was “An action of increasing the plasma LDL-C level was found”. In addition, the “plasma CETP activity value” in the test on CETP is “increase in the CETP activity was confirmed”. In addition, in test [1], the “body weight gain rate on the 21st day” value is “approximately equal to that of the high-fat diet group”.

`CC/C=C\C/C=C\C/C=C\C/C=C\C/C=C\CCCC(=O)OCC` [EPA-E, ethyl icosapentate]: the “plasma LDL-C level” value in the test with plasma LDL-C is on record as “an action of suppressing the increase of the plasma LDL-C level was found”. Besides, in the test with CETP, the “plasma CETP activity value” is on record as “the action of suppressing the increase of the CETP activity was confirmed”. In addition, the “suppression of body weight gain” value in test [2] is listed as “effective in suppressing the body weight gain”; in test [3], “ineffective”. Also, in test [1] (high fat diet + 2% test substance, 21st day (FIG. 2)), the “amount of fat in the epididymis on the 21st day” value is listed as “increase in the amount of fat was significantly suppressed”. The “body weight gain rate on the 21st day” value in test [1] is “lower than the control high-fat diet group”.

The record behind these values is patent US9345681B2, “Anti-obesity agent comprising high-purity EPA” (MOCHIDA PHARMACEUTICAL CO., LTD., priority 2011, dated 2016).
